Results taken from US6211156A (priority 1999, dated 2001).

Tested on: male rats
Conditions: rat, in vivo

Molecule: C[C@]12N[C@H](Cc3ccccc31)c1ccccc12 [MK 801, dizolcipine]
- effect on test peptide induced penile erection: did not modify the penile erection

Molecule: ω-conotoxin-GVIA
- effect on penile erection induced by 2 μg of the test peptides into the PVN: reduced penile erection

Molecule: COC(=O)[C@@H](N)CCCNC(=N)N[N+](=O)[O-] [L-NAME, N^G -nitro-1-arginine methyl ester]
- effect on penile erections induced by 2 μg of the test peptides into the PVN: reduced in a dose dependent manner

Molecule: CN1CC[C@]23c4c5ccc(O)c4O[C@H]2[C@@H](O)C=C[C@H]3[C@H]1C5 [morphine]
- effect on penile erections induced by 2 μg of the test peptides into the PVN: reduced in a dose-dependent manner

Molecule: OCCN1CCN(CC/C=C2/c3ccccc3Sc3ccc(C(F)(F)F)cc32)CC1 [cis-flupenthixol]
- effect on test peptide induced penile erection: did not modify the penile erection
